Read-outs that look alike come from different tables or passages of the source.

One experiment deals with T1, MMP-9 (Homo sapiens, UniProt P14780).
T1 construct: Human MMP-9 catalytic domain (aa 107-446)
The experiment is described as follows: MMP enzymatic assay (Trupoint peptide), MMP-9. It is filed as biochemical. The protocol:
[formula] • 1) Prepare appropriate 1×MMP assay buffer from 10× stock. […] The plate setup should be as follows, using GM6001 as plate reference compound:
• 6) Serially dilute 10 μl down the plate to achieve 1:3 dilutions in subsequent wells. After each dilution, change pipette tips to avoid compound carryover. […] Will need 10 ml enzyme solution per plate. Add enzyme to plate, 20 μl per well. Incubate 1 hr.
Prepare 5 ml total per plate. Add 10 ul of substrate to each well to achieve a final concentration of 100 nM in well. […] Read in plate reader.
(§1) Analysis Specifications • Calculate average background value from substrate/assay buffer wells • Subtract this from entire plate • Calculate average of DMSO wells for each enzyme. This is the positive control, 100% value. • For each well, calculate percent of control by dividing well value by the average DMSO value obtained above. • Paste percent of control values into Graphpad Prism 4.0.

Another experiment deals with T2, MMP-2 (Homo sapiens, UniProt P08253).
T2 construct: Human MMP-2 full length (aa 1-660)
T2 sequence (P08253 30-660): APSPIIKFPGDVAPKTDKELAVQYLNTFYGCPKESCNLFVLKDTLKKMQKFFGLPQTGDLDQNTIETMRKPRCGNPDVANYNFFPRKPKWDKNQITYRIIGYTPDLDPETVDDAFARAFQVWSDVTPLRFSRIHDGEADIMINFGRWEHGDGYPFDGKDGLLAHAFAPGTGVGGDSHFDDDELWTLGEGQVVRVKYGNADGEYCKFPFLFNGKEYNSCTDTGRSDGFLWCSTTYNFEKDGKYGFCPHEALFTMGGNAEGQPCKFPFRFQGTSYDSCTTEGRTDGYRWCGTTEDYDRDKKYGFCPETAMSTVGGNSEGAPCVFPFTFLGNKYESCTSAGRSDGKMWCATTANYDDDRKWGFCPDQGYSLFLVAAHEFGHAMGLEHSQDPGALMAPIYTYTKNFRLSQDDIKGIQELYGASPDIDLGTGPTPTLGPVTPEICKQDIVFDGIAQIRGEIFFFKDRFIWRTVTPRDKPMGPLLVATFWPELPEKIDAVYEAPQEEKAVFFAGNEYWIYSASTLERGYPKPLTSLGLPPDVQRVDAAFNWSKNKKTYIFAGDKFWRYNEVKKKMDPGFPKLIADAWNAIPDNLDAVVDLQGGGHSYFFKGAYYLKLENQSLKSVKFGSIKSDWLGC
The experiment is described as follows: MMP enzymatic assay (Trupoint peptide), MMP-2. The format is biochemical. The protocol:
[formula] • 1) Prepare appropriate 1×MMP assay buffer from 10× stock. […] Need to prepare a 2.5× concentration stock (2.5 μM) to achieve this concentration in 50 μl. Dilute compound to 2.5 mM in 100% DMSO (a 1:40 dilution), then dilute the 2.5 mM compound to 2.5 μM (1:1000) into 1× assay buffer. Make 1 ml 2.5 μM compound in assay buffer. • 4) Fill the rows B through P of a 384-well plate with assay buffer+0.1% DMSO. • 5) Add 30 ul of the 2.5 μM compound in assay buffer to the top row of the plate, doing each compound in triplicate. The plate setup should be as follows, using GM6001 as plate reference compound:
• 6) Serially dilute 10 μl down the plate to achieve 1:3 dilutions in subsequent wells. After each dilution, change pipette tips to avoid compound carryover. Discard the remaining 10 μl after diluting into the final row. • 7) Prepare enzyme dilutions at 2.5× of final desired concentration (see below). Will need 10 ml enzyme solution per plate. Add enzyme to plate, 20 μl per well. Incubate 1 hr.
• 8) Dilute the 500 μM Trupoint peptide 1:1000 into assay buffer to achieve a 5× working stock of 500 nM. Prepare 5 ml total per plate. Add 10 ul of substrate to each well to achieve a final concentration of 100 nM in well. Also prepare background subtraction wells by adding 10 μl 5× substrate to 40 μl assay buffer per well, typically do ˜32 wells. • 9) Incubate assay at room temperature for 15 min. Read in plate reader.
as §1

T1 sequence (P14780 107-446): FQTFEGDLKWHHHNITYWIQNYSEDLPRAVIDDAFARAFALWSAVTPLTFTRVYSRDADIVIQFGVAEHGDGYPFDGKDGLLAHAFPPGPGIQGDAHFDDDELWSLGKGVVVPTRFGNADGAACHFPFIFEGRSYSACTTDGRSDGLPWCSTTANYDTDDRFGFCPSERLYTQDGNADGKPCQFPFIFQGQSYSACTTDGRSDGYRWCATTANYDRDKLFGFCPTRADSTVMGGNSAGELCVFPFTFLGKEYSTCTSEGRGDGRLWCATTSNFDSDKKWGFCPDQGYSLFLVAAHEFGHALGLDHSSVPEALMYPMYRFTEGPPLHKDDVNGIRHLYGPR

“1-Hydroxy-3-(4′-trifluoromethoxy-biphenyl-4-sulfonyl)-azepan-2-one [Compound 85]”: the IC50 against MMP-9 and on MMP-2 (read-out: MMP-2 nM IC50) was > 1000 nM throughout.
With “4-(4-Chloro-phenoxy)-N-(1-hydroxy-2-oxo-2,3,4,7-tetrahydro-1H-azepin-3-(R)-yl)-benzenesulfonamide [Compound 1]”, the figures for the IC50 on MMP-9 and at MMP-2 (read-out: MMP-2 nM IC50) were 0.78 nM and 0.81 nM, respectively.
Consider `O=C1[C@H](NS(=O)(=O)c2ccc(-c3ccc(Cl)cc3)cc2)CC=CCN1O` [Compound 2, 4′-Chloro-biphenyl-4-sulfonic acid (1-hydroxy-2-oxo-2,3,4,7-tetrahydro-1H-azepin-3-(R)-yl)-amide], for which the IC50 was 1140 nM on MMP-9 and 68.6 nM against MMP-2.
As for `O=C1[C@H](NS(=O)(=O)c2ccc(Oc3ccccc3)cc2)CC=CCN1O` [Compound 3, N-(1-Hydroxy-2-oxo-2,3,4,7-tetrahydro-1H-azepin-3-(R)-yl)-4-phenoxy-benzenesulfonamide], the figures for the IC50 against MMP-9 and against MMP-2 were 1.76 nM and 1.07 nM, respectively.
In the case of `O=C1[C@H](NS(=O)(=O)c2ccc(Oc3ccc(C(F)(F)F)cc3)cc2)CC=CCN1O` [Compound 5, N-(1-Hydroxy-2-oxo-2,3,4,7-tetrahydro-H-azepin-3-(R)-yl)-4-(4-trifluoro-methyl-phenoxy)-benzenesulfonamide], the 50% inhibitory concentration (IC50) was found to be 2.04 nM on MMP-9 and 1.79 nM at MMP-2.
With `O=C1[C@H](NS(=O)(=O)c2ccc(Oc3ccncc3)cc2)CC=CCN1O` [Compound 6, N-(1-Hydroxy-2-oxo-2,3,4,7-tetrahydro-1H-azepin-3-(R)-yl)-4-(pyridin-4-yloxy)-benzenesulfonamide], the IC50 at MMP-9 is 15.9 nM; on MMP-2, 2.67 nM.
The corresponding values for `O=C1[C@H](NS(=O)(=O)c2ccc(Oc3ncc(C(F)(F)F)cc3Cl)cc2)CC=CCN1O` [Compound 7, 4-(3-Chloro-5-trifluoromethyl-pyridin-2-yloxy)-N-(1-hydroxy-2-oxo-2,3,4,7-tetrahydro-1H-azepin-3-(R)-yl)-benzenesulfonamide] are > 1000 nM and > 1000 nM.
The corresponding values for `O=C1[C@H](NS(=O)(=O)c2ccc(Oc3ccccn3)cc2)CC=CCN1O` [Compound 8, N-(1-Hydroxy-2-oxo-2,3,4,7-tetrahydro-1H-azepin-3-(R)-yl)-4-(pyridin-2-yloxy)-benzenesulfonamide] are 22.9 nM and 15.1 nM.
With `O=C1[C@H](NS(=O)(=O)c2ccc(N3CCC(c4ccccc4)CC3)cc2)CC=CCN1O` [Compound 9, N-(1-Hydroxy-2-oxo-2,3,4,7-tetrahydro-1H-azepin-3-(R)-yl)-4-(4-phenyl-piperidin-1-yl)-benzenesulfonamide], the concentration for half-maximal inhibition (IC50) against MMP-9 and against MMP-2 was > 1000 nM in each case.
Consider `O=C1[C@H](NS(=O)(=O)c2ccc(N3CCN(c4ccccc4)CC3)cc2)CC=CCN1O` [Compound 10, N-(1-Hydroxy-2-oxo-2,3,4,7-tetrahydro-1H-azepin-3-(R)-yl)-4-(4-phenyl-piperazin-1-yl)-benzenesulfonamide], for which the half-inhibitory concentration (IC50) at MMP-9 and against MMP-2 was > 1000 nM in each case.
For `O=C1[C@H](N(CCN2CCOCC2)S(=O)(=O)c2ccc(Oc3ccc(Cl)cc3)cc2)CC=CCN1O` [Compound 11, 4-(4-Chloro-phenoxy)-N-(1-hydroxy-2-oxo-2,3,4,7-tetrahydro-1H-azepin-3-(R)-yl)-N-(2-morpholin-4-yl-ethyl)-benzenesulfonamide], the half-maximal inhibitory concentration (IC50) came out at 0.2 nM at MMP-9 and 0.31 nM against MMP-2.
In the same order, the values of `CN([C@@H]1CC=CCN(O)C1=O)S(=O)(=O)c1ccc(Oc2ccc(Cl)cc2)cc1` [Compound 12, 4-(4-Chloro-phenoxy)-N-(1-hydroxy-2-oxo-2,3,4,7-tetrahydro-1H-azepin-3-(R)-yl)-N-methyl-benzenesulfonamide] are 1.32 nM and 1.99 nM.
As to `O=C1[C@H](N(CCN2CCCCC2)S(=O)(=O)c2ccc(Oc3ccc(Cl)cc3)cc2)CC=CCN1O` [Compound 13, 4-(4-Chloro-phenoxy)-N-(1-hydroxy-2-oxo-2,3,4,7-tetrahydro-1H-azepin-3-(R)-yl)-N-(2-piperidin-1-yl-ethyl)-benzenesulfonamide], the half-maximal inhibitory concentration (IC50) at MMP-9 came to 0.21 nM; against MMP-2 it was 0.55 nM.
For `CN1CCN(CCN([C@@H]2CC=CCN(O)C2=O)S(=O)(=O)c2ccc(Oc3ccc(Cl)cc3)cc2)CC1` [Compound 14, 4-(4-Chloro-phenoxy)-N-(1-hydroxy-2-oxo-2,3,4,7-tetrahydro-1H-azepin-3-(R)-yl)-N-[2-(4-methyl-piperazin-1-yl)-ethyl]-benzenesulfonamide], the IC50 at MMP-9 came out at 0.2 nM; against MMP-2, 0.49 nM.
As for `O=C1[C@H](NS(=O)(=O)Cc2ccc(Cl)cc2)CC=CCN1O` [Compound 15, (4-Chloro-phenyl)-N-(1-hydroxy-2-oxo-2,3,4,7-tetrahydro-1H-azepin-3-(R)-yl)-methanesulfonamide], the IC50 at MMP-9 and against MMP-2 was > 1000 nM throughout.
Take `O=C1[C@H](NS(=O)(=O)c2ccc(Br)s2)CC=CCN1O` [Compound 16, 5-Bromo-thiophene-2-sulfonic acid (1-hydroxy-2-oxo-2,3,4,7-tetrahydro-1H-azepin-3-(R)-yl)-amide]: the figures for the half-maximal inhibitory concentration (IC50) on MMP-9 and at MMP-2 were 28.4 nM and 43 nM, respectively.
`COc1ccc(-c2ccc(S(=O)(=O)N[C@@H]3CC=CCN(O)C3=O)s2)cc1` [Compound 17, 5-(4-Methoxy-phenyl)-thiophene-2-sulfonic acid (1-hydroxy-2-oxo-2,3,4,7-tetrahydro-1H-azepin-3-(R)-yl)-amide]: the half-inhibitory concentration (IC50) against MMP-9 worked out at 10.7 nM; on MMP-2 it was 3.9 nM.
With `O=C1[C@H](N(CCN2CCOCC2)S(=O)(=O)c2ccc(Br)s2)CC=CCN1O` [Compound 18, (R)-5-Bromo-thiophene-2-sulfonic acid (1-hydroxy-2-oxo-2,3,4,7-tetrahydro-1H-azepin-3-yl)-(2-morpholin-4-yl-ethyl)-amide], the IC50 at MMP-9 amounted to 14.3 nM; at MMP-2, 48.1 nM.
Turning to `O=C1[C@H](NS(=O)(=O)c2ccc(Oc3ccc(Cl)cc3)cc2)CC=C(CN2CCOCC2)CN1O` [Compound 19, 4-(4-Chloro-phenoxy)-N-(1-hydroxy-6-morpholin-4-ylmethyl-2-oxo-2,3,4,7-tetrahydro-1H-azepin-3-(R)-yl)-benzenesulfonamide], the figures for the IC50 on MMP-9 and against MMP-2 were 0.77 nM and 0.39 nM, respectively.
Compound `CN(c1cccn(O)c1=O)S(=O)(=O)c1ccc(Oc2ccc(C(F)(F)F)cc2)cc1` [Compound 30, N-(1-Hydroxy-2-oxo-1,2-dihydro-pyridin-3-yl)-N-methyl-4-(4-trifluoromethyl-phenoxy)-benzenesulfonamide] returned a 50% inhibitory concentration (IC50) on MMP-9 of 32.7 nM.
Take `Cc1ccn(O)c(=O)c1N(C)S(=O)(=O)c1ccc(Oc2ccc(Cl)cc2)cc1` [Compound 31, 4-(4-Chloro-phenoxy)-N-(1-hydroxy-4-methyl-2-oxo-1,2-dihydro-pyridin-3-yl)-N-methyl-benzenesulfonamide]: the IC50 on MMP-2 (read-out: MMP-2 nM IC50) was 66.2 nM.
Regarding `CN(c1cc(Br)cn(O)c1=O)S(=O)(=O)c1ccc(Oc2ccc(Cl)cc2)cc1` [Compound 32, N-(5-Bromo-1-hydroxy-2-oxo-1,2-dihydro-pyridin-3-yl)-4-(4-chloro-phenoxy)-N-methyl-benzenesulfonamide], the 50% inhibitory concentration (IC50) at MMP-2 (read-out: MMP-2 nM IC50) came to 662 nM.
Compound `O=C1[C@H](NS(=O)(=O)c2ccc(Oc3ccc(Cl)cc3)cc2)CCCN1O` [Compound 57, (R)-4-(4-Chloro-phenoxy)-N-(1-hydroxy-2-oxo-piperidin-3-yl)-benzene-sulfonamide] came in with a half-inhibitory concentration (IC50) on MMP-9 of 57.9 nM.
